This is an account of results in US6706703B2, “Bis(5-aryl-2-pyridyl) derivatives” (Kowa Co., Ltd., priority 2001, dated 2004).

pIC50: −log10 of the molar value. Where a name gives a salt, the structure may show the parent alone. Marks after values point to notes of the source that are not given here.

A short description of data set [1]: Solubility of each compound in water. The format is physicochemical. An excerpt:
Further, the solubility (%) of each compound in water was also estimated.

For another data set, the system named is IgE antibody production. The experiment in a line: Evaluation of IgE antibody production inhibiting activity (B cells + LPS + mouse IL-4, IgE in culture supernatant by ELISA). The format is cell-based. To be noted: B-cell, mouse (Balb/C) spleen B cells, LPS 1 day then mouse IL-4 6 days. The protocol:
Test 1 (Evaluation of IgE Antibody Production Inhibiting Activity)
From a mouse (Balb/C, male, 8 weeks old), the spleen was enucleated. The spleen was shredded in 10% FEB/RPMI 1640, and was then disintegrated into single cells through a 70-mesh screen. Those single cells were hemolyzed with Gey's solution, and using RPMI 1640 medium/25 mM HEPES/0.3% BSA, a spleen cell suspension (1×10^7 cells/mL) was prepared. After an aliquot of the suspension was reacted with a rat anti-mouse Thy-1.2 monoclonal antibody (product of Cedarlane Laboratories Limited) at 4° C. for 1 hour, centrifugation was conducted. Precipitated cells were suspended again (1×10^7 cells/mL, RPMI/HEPES/BSA). After the suspension was next reacted with a low-cytotoxic rabbit complement (product of Cedarlane Laboratories Limited) at 37° C. for 1 hour, dead cells were removed by specific gravity centrifugation using Lympholyte M (product of Cedarlane Laboratories Limited) so that a B cell fraction was obtained as viable cells.
Using a 96-well plate, the B cells (2×10^5 cells/0.2 mL/well) were incubated together with LPS (E. coli 026:B6, product of DIFCO Laboratories, Inc.) for 1 day. Mouse IL-4 (product of Genzyme Corp.) was then added, followed by further incubation for 6 days.
The IgE antibody production inhibiting activity of each drug was calculated by adding the drug Day 1 of the incubation and assaying the quantity of IgE in the culture supernatant by ELISA after the incubation.
For orientation: An ELISA detects its analyte on a solid surface through an enzyme-linked reagent.

[2] abbreviates: solubility in 0.1M hydrochloric acid (footnote *).

`COc1cc(-c2ccc(N3CCCN(c4ccc(-c5cc(OC)c(OC)c(OC)c5)cn4)CC3)nc2)cc(OC)c1OC` [Example 26, 1,4-Bis[5-(3,4,5-trimethoxyphenyl)-2-pyridyl]hexahydro-1,4-diazepine Dimethanesulfonate] displayed a Water solubility in data set [1] (in water) of 5%. Besides, the pIC50 in the data set with IgE antibody production was 6.70.
For `COc1cc(-c2ccc(N3CCCN(c4ccc(-c5cc(OC)c(N)c(OC)c5)cn4)CC3)nc2)cc(OC)c1N` [Example 34, 1,4-Bis[5-(4-amino-3,5-dimethoxyphenyl)-2-pyridyl]hexahydro-1,4-diazepine Tetrahydrochloride], in that order: 5% and 6.52.
Regarding `COc1cc(-c2ccc(N3CCCN(c4ccc(-c5cc(OC)c(N(C)C)c(OC)c5)cn4)CC3)nc2)cc(OC)c1N(C)C` [Example 35, 1,4-Bis[5-(4-dimethylamino-3,5-dimethoxyphenyl)-2-pyridyl]hexahydro-1,4-diazepine], the Water solubility in data set [1] (setting [2]) is 5* %. In addition, the negative logarithm of the IC50 (pIC50) in the data set with IgE antibody production is 6.70.
On the same counts, the results for `COc1cc(-c2ccc(N3CCN(CCCN4CCN(c5ccc(-c6cc(OC)c(OC)c(OC)c6)cn5)CC4)CC3)nc2)cc(OC)c1OC` [Example 57, 1,3-Bis[4-[5-(3,4,5-trimethoxyphenyl)-2-pyridyl]-1-piperazinyl]propane] are 5* % and 7.00.
In data set [1] (in water), `COc1cc(-c2ccc(N(C)CCN(C)c3ccc(-c4cc(OC)c(OC)c(OC)c4)cn3)nc2)cc(OC)c1OC` [Example 58, N,N′-Bis[5-(3,4,5-trimethoxyphenyl)-2-pyridyl]-N,N′-dimethylethylenediamine Dimethanesulfonate] displayed a Water solubility of 5%. Further, the pIC50 in the data set with IgE antibody production is 6.70.

As a reminder, the pIC50 is the negative decadic logarithm of the IC50, by convention in mol/L.
